Where two headings read alike, the source gives them in different places.
Legend:
BT474 = test: Cell proliferation MTT assay; format: cell-based
Method: (§1) Cells were seeded in 12-well plates at densities ranging from 10000-30000 cells/well and after 24 hours cells were treated with 10, 40 and 100 nM THZ1 in triplicate. After 7 days the cells were imaged using Zeiss Axiovert 200 microscope using a 20× objective lens. Additionally, cells were plated in 96-well plates at a density of 2000 cells/well and after 24 hours treated with 0-10 μM THZ1. After 2 and 7 days the growth of the cells was measured by MTT assay.
(§2) All results were presented as mean±standard deviation of 4-8 parallel assessments. Similar results were obtained from a minimum of two independent experiments. […] Densitometry was performed on duplicate immunoblots using ImageLab software (Biorad) and normalized to tubulin loading controls and then correlated with the THZ1 IC50 values of each cell line. Statistical analyses were performed using SPSS 18.0 (SPSS Inc). Bi-variant scatter graphs and Spearman rank analyses were performed to evaluate associations between protein levels, mRNA and response to inhibition. IC50 values were calculated for MTT assays using CompuSyn software.

BT549 = test: Cell proliferation MTT assay; format: cell-based
Method: as §1, §2

HCC1937 = test: Cell proliferation MTT assay; format: cell-based
Method: as §1, §2

HCC1954 = test: Cell proliferation MTT assay; format: cell-based
Method: as §1, §2

JIMT-1 = test: Cell proliferation MTT assay; format: cell-based; conditions: for IC50: MTT
Method: as §1, §2

MCF7 = test: Cell proliferation MTT assay; format: cell-based
Method: as §1, §2

MDA-MB-231 = test: Cell proliferation MTT assay; format: cell-based
Method: as §1, §2

MDA-MB-361 = test: Cell proliferation MTT assay; format: cell-based
Method: as §1, §2

MDA-MB-453 = test: Cell proliferation MTT assay; format: cell-based
Method: as §1, §2

SKBR3 = test: Cell proliferation MTT assay; format: cell-based
Method: as §1, §2

T47D [1] = test: Cell proliferation MTT assay; format: cell-based
Method: as §1, §2

ZR-75-1 = test: Cell proliferation MTT assay; format: cell-based
Method: as §1, §2

[2] = tested on: panel of breast cancer cell lines; test: Cell proliferation MTT assay, cell line panel; format: cell-based
Method: as §1, §2
To investigate the effect of CDK7 inhibition in a time and dose dependent manner, an extended panel of 11 breast cancer cell lines were screened for response to THZ1 after 2 and 7 days of treatment.

[3] = tested on: serum starved SKBR3 cells; test: EGF stimulation; format: cell-based; conditions: 100 ng/ml EGF with 250 nM THZ1, 6 hours
Method: SKBR3 cells were seeded into duplicate 6-well plates and allowed to grow until 80% confluent. The cells were then washed with PBS and the media was replaced with serum-free media overnight. After serum starvation the cells were treated with 100 ng/ml EGF with or without 250 nM THZ1 for 6 hours then lysates were collected for both RNA and protein analysis.

549 = conditions: fold change in gene expression, THZ1; cited from earlier work
T47D [4] = conditions: fold change in gene expression, THZ1; cited from earlier work

CN(C)C/C=C/C(=O)Nc1ccc(C(=O)Nc2cccc(Nc3ncc(Cl)c(-c4c[nH]c5ccccc45)n3)c2)cc1 [THZ1]
IC50 (BT474; BT474, 2 days, read-out: 2 day IC50): 490 nM
IC50 (BT474; BT474, 7 days, read-out: 7 day IC50): 27 nM
IC50 (BT549; BT549, 2 days, read-out: 2 day IC50): 17 nM
IC50 (BT549; BT549, 7 days, read-out: 7 day IC50): 8 nM
IC50 (HCC1937; HCC1937, 2 days, read-out: 2 day IC50): 94 nM
IC50 (HCC1937; HCC1937, 7 days, read-out: 7 day IC50): 24 nM
IC50 (HCC1954; HCC1954, 2 days, read-out: 2 day IC50): 158 nM
IC50 (HCC1954; HCC1954, 7 days, read-out: 7 day IC50): 36 nM
IC50 (JIMT-1; JIMT-1, 2 days, read-out: 2 day IC50): 289 nM
IC50 (JIMT-1; JIMT-1, 7 days, read-out: 7 day IC50): 87 nM
response to low nanomolar concentrations (JIMT-1; JIMT-1, <100 nM, 7 days of treatment): lack of significant response
IC50 (MCF7; MCF7, 2 days, read-out: 2 day IC50): 32 nM
IC50 (MCF7; MCF7, 7 days, read-out: 7 day IC50): 59 nM
IC50 (MDA-MB-231; MDA-MB-231, 2 days, read-out: 2 day IC50): 159 nM
IC50 (MDA-MB-231; MDA-MB-231, 7 days, read-out: 7 day IC50): 36 nM
IC50 (MDA-MB-361; MDA-MB-361, 2 days, read-out: 2 day IC50): 133 nM
IC50 (MDA-MB-361; MDA-MB-361, 7 days, read-out: 7 day IC50): 27 nM
IC50 (MDA-MB-453; MDA-MB-453, 2 days, read-out: 2 day IC50): 133 nM
IC50 (MDA-MB-453; MDA-MB-453, 7 days, read-out: 7 day IC50): 12 nM
IC50 (SKBR3; SKBR3, 2 days, read-out: 2 day IC50): 23 nM
IC50 (SKBR3; SKBR3, 7 days, read-out: 7 day IC50): 9 nM
IC50 (T47D [1]; 2 days, read-out: 2 day IC50): 89 nM
IC50 (T47D [1]; 7 days, read-out: 7 day IC50): 14 nM
IC50 (ZR-75-1; ZR-75-1, 2 days, read-out: 2 day IC50): 286 nM
IC50 (ZR-75-1; ZR-75-1, 7 days, read-out: 7 day IC50): 50 nM
difference in sensitivity determined by IC50 ([2]; most sensitive cell line SKBR3 vs least sensitive cell line JIMT-1): 25 fold
IC50 ([2]; two-day treatment, read-out: IC50 values of most cell lines): 100 to 300 nM
EGF induction of CITED2 expression (mRNA) [3]: prevented
EGF induction of mRNA expression of EGFR, MYC, CDKN1B, PLK2 and FOXC1 [3]: prevented
EGF-induced increase of CITED2 protein [3]: prevented
BAMBI 549 FC 549: −2.97
CDKN1B 549 FC 549: −3.06
CITED2 549 FC 549: −4.12
CYR61 549 FC 549: −2.96
DKK1 549 FC 549: −5.01
E2F8 549 FC 549: −3.09
ELF3 549 FC 549: −1.11
FADD 549 FC 549: −3.1
FBXO5 549 FC 549: −4.09
MARS2 549 FC 549: −3.73
MOCS3 549 FC 549: −4.2
MYC 549 FC 549: −3.06
NEDD9 549 FC 549: −1.53
PHLDA1 549 FC 549: −2.72
PIM3 549 FC 549: −2.73
PLK2 549 FC 549: −3.7
TRIB1 549 FC 549: −4.07
WEE1 549 FC 549: −2.95
ZNF217 549 FC 549: −3.66
ZNF627 549 FC 549: −3.39
BAMBI T47D FC (T47D [4]): −1.74
CDKN1B T47D FC (T47D [4]): −2.3
CITED2 T47D FC (T47D [4]): −2.71
CYR61 T47D FC (T47D [4]): −1.96
DKK1 T47D FC (T47D [4]): −1.09
E2F8 T47D FC (T47D [4]): −4.01
ELF3 T47D FC (T47D [4]): −1.22
FADD T47D FC (T47D [4]): −3.29
FBXO5 T47D FC (T47D [4]): −2.65
MARS2 T47D FC (T47D [4]): −2.3
MOCS3 T47D FC (T47D [4]): −3.86
MYC T47D FC (T47D [4]): −2.68
NEDD9 T47D FC (T47D [4]): −3.32
PHLDA1 T47D FC (T47D [4]): −3.81
PIM3 T47D FC (T47D [4]): −2.54
PLK2 T47D FC (T47D [4]): −2.48
TRIB1 T47D FC (T47D [4]): −2.31
WEE1 T47D FC (T47D [4]): −1.96
ZNF217 T47D FC (T47D [4]): −2.77
ZNF627 T47D FC (T47D [4]): −2.75
